# According to patent publication US20250236629A1, “MEDIUM- OR MACRO-CYCLIC BENZYL-SUBSTITUTED HETEROCYCLE DERIVATIVES AND RELATED USES” (CENTESSA PHARMACEUTICALS (UK) LIMITED, priority 2022, published 2025):
# Molecular target: T1, human orexin type 2 receptor (hOX2R) (Homo sapiens, UniProt O43614)
# T1 construct: the Orexin receptor cDNA was inserted into pcDNA3.1(+) plasmid vector; expressed in transfected cells
# T1 sequence (O43614 1-444): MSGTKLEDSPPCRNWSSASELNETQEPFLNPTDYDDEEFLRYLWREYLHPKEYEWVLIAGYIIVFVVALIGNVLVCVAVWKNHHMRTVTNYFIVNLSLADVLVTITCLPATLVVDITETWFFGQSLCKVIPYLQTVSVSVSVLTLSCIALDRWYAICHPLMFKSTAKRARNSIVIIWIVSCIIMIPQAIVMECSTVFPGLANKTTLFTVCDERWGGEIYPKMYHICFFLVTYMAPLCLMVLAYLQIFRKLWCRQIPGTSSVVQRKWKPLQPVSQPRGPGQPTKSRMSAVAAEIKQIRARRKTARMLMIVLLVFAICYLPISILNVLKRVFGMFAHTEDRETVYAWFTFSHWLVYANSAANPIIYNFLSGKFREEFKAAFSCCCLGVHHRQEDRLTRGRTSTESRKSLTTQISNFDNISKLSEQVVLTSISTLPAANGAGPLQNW
# Test: Orexin type 2 receptor agonist activity, intracellular Ca2+ (FLIPR TETRA) in CHO cells
# Assay type: cell-based
# Settings: CHO cells expressing hOX2R; Ca2+ fluorescence area; 100% = 10 nM human orexin A; read-out: hOx2 pEC50 (converted)
# Method: Stable cell line generation. Obtainment of cells stably expressing either human orexin type 2 or human orexin type 1 receptor: to obtain a stable cell line the Orexin receptor cDNA was inserted into pcDNA3.1(+) plasmid vector and clones identified by G418 drug resistance selection. […] A single clone for OX2R—CHO and OX1R—CHO were grown in bulk and frozen to generate a cell bank for routine screening.
# Measurement of orexin type 2 receptor agonist activity. Chinese hamster ovary (CHO) cells expressing human orexin type 2 receptor (hOX2R) or human orexin type 1 receptor (hOX1R) were seeded in each well of 384 well black clear bottom plates (BD Flacon) at 10,000 cells per well and cultured for 24 hr in an Ham's F12 (Gibco) medium containing 10% fetal calf serum (Sigma Aldrich) under the conditions of 37° C., 5% CO2. After removal of the medium, 50 μl of assay buffer 1 (0.1% bovine serum albumin (Sigma Aldrich), 20 mM HEPES (Molecular Dimensions), […] probenecid (Sigma Aldrich), 1× Calcium 5 dye (Molecular Devices) in Hank's balanced salt solution (Invitrogen)) was added, and the cells were incubated for 60 min under the conditions of 37° C., 5% CO2. A test compound was dissolved in dimethyl sulfoxide (Sigma Aldrich) to 10 mM, and then diluted with assay buffer 2 (20 mM HEPES, Hank's balanced salt solution, 0.1% bovine serum albumin). For the reaction, a test compound solution (10 μl) was added using Fluorescent Imaging Plate Reader TETRA (FLIPR TETRA: manufactured by Molecular Devices), a fluorescence value (excitation wavelength 488 nm, measurement wavelength 570 nm) of each well was measured every one second for 2 min, and the agonist activity was determined using the area of the fluorescence value as an indicator of intracellular Ca^2+ concentration. The agonist activity of the test compound was calculated assuming that the fluorescence value of the well added with only the dilution buffer was 0% and the fluorescence value of the well added with 10 nM human orexin A (Tocris) buffer was 100%.
# Values of hOx2 pEC50 in Table B are presented in ranges, in which 6.0≤“+”<7.0, 7.0≤“++”<8.0, 8.0≤“+++”<9.0, and 9.0≤“++++”<10.4.
row,SMILES,EC50 [nM]
1,"CN1CCOc2ccccc2-c2cccc(c2F)C[C@H]2[C@@H](NS(=O)(=O)CF)C3(CC3)CN2C1=O [Example 25, 1-fluoro-N-((2′S,3′S)-2′-fluoro-6′-methyl-5′-oxospiro[cyclopropane-1,4′-9-oxa-6-aza-4(2,1)-pyrrolidina-1(1,2),2(1,3)-dibenzenacyclononaphan]-3′-yl)methanesulfonamide]",1 to 10
2,"CN1CCOc2c(F)cccc2-c2cccc(c2)C[C@H]2[C@@H](NS(=O)(=O)C(F)F)C(F)(F)CN2C1=O [Example 1, 1,1-difluoro-N-((4^2S,4^3R)-1^3,4^4,4^4-trifluoro-6-methyl-5-oxo-9-oxa-6-aza-4(2,1)-pyrrolidina-1(1,2),2(1,3)-dibenzenacyclononaphane-4^3-yl)methanesulfonamide]",10 to 100
3,"CCS(=O)(=O)N[C@H]1[C@@H](F)CN2C(=O)N(C)CCOc3c(F)cccc3-c3cccc(c3)C[C@@H]12 [Example 16, N-((4^2S,4^3R,4^4S)-1^3,4^4-difluoro-6-methyl-5-oxo-9-oxa-6-aza-4(2,1)-pyrrolidina-1(1,2),2(1,3)-dibenzenacyclononaphane-4^3-yl)ethanesulfonamide]",1 to 10
4,"O=C1CCOc2c(F)cccc2-c2cccc(c2)C[C@H]2[C@@H](NS(=O)(=O)C3(F)CC3)[C@@H](F)CCN12 [Example 46, N-((4^2S,4^3R,4^4S)-1^3,4^4-difluoro-5-oxo-8-oxa-4 (2,1)-piperidina-1 (1,2),2 (1,3)-dibenzenacyclooctaphane-4^3-yl)-1-fluorocyclopropane-1-sulfonamide]",0.0398 to 1
5,"CN1CCOc2c(F)cccc2-c2cccc(c2)C[C@H]2[C@@H](NS(=O)(=O)CF)C(F)(F)CN2C1=O [Example 7, 1-fluoro-N-((4^2S,4^3R)-1^3,4^4,4^4-trifluoro-6-methyl-5-oxo-9-oxa-6-aza-4(2,1)-pyrrolidina-1(1,2),2(1,3)-dibenzenacyclononaphane-4^3-yl)methanesulfonamide]",1 to 10
6,"CN1CCOc2c(F)cc(F)cc2-c2cccc(c2F)C[C@H]2[C@@H](NS(=O)(=O)CF)C3(CC3)CN2C1=O [Example 40, 1-fluoro-N-((2′S,3′S)-2′,3′,5′-trifluoro-6′-methyl-5′-oxospiro[cyclopropane-1,4′-9-oxa-6-aza-4(2,1)-pyrrolidina-1(1,2),2(1,3)-dibenzenacyclononaphan]-3′-yl)methanesulfonamide]",1 to 10
7,"CN1CCOc2ccccc2-c2cccc(c2)C[C@H]2[C@@H](NS(=O)(=O)C(C)(C)F)C3(CC3)CN2C1=O [Example 38, 2-fluoro-N-((2′S,3′S)-6′-methyl-5′-oxospiro[cyclopropane-1,4′-9-oxa-6-aza-4(2,1)-pyrrolidina-1(1,2),2(1,3)-dibenzenacyclononaphan]-3′-yl)propane-2-sulfonamide]",1 to 10
8,"O=C1CCOc2c(F)cc(F)cc2-c2cccc(c2)C[C@H]2[C@@H](NS(=O)(=O)C(F)F)CCCN12 [Example 14, N-((4^2S,4^3S)-1^3,1^5-difluoro-5-oxo-8-oxa-4(2,1)-piperidina-1(1,2),2(1,3)-dibenzenacyclooctaphane-4^3-yl)-1,1-difluoromethanesulfonamide]",1 to 10
9,CN1CCOc2c(F)cccc2-c2cccc(c2)C[C@H]2[C@@H](NS(=O)(=O)C(F)F)C3(CC3)CN2C1=O [Example 34],1 to 10
10,"CN1CCOc2c(F)cccc2-c2cccc(c2)C[C@H]2[C@@H](NS(=O)(=O)CF)[C@@H](F)CN2C1=O [Example 21, N-((4^2S,4^3R,4^4S)-1^3,4^4-difluoro-6-methyl-5-oxo-9-oxa-6-aza-4(2,1)-pyrrolidina-1(1,2),2(1,3)-dibenzenacyclononaphane-4^3-yl)-1-fluoromethanesulfonamide]",1 to 10
11,"CN1CCOc2c(F)cccc2-c2cccc(c2)C[C@H]2[C@@H](NS(=O)(=O)C(F)F)[C@@H](F)CN2C1=O [Example 20, N-((4^2S,4^3R,4^4S)-1^3,4^4-difluoro-6-methyl-5-oxo-9-oxa-6-aza-4(2,1)-pyrrolidina-1(1,2),2(1,3)-dibenzenacyclononaphane-4^3-yl)-1,1-difluoromethanesulfonamide]",1 to 10
12,"O=C1CCOc2c(F)cccc2-c2cccc(c2)C[C@H]2[C@@H](NS(=O)(=O)C(F)F)CCCN12 [Example 24, 1,1-difluoro-N-((4^2S,4^3S)-1^3-fluoro-5-oxo-8-oxa-4(2,1)-piperidina-1(1,2),2(1,3)-dibenzenacyclooctaphane-4^3-yl)methanesulfonamide]",1 to 10
13,"CN1CCOc2c(F)cccc2-c2cccc(c2)C[C@H]2[C@@H](NS(=O)(=O)CF)C3(CC3)CN2C1=O [Example 30, 1-fluoro-N-((2′S,3′S)-3′-fluoro-6′-methyl-5′-oxospiro[cyclopropane-1,4′-9-oxa-6-aza-4(2,1)-pyrrolidina-1(1,2),2(1,3)-dibenzenacyclononaphan]-3′-yl)methanesulfonamide]",10 to 100
14,"CCS(=O)(=O)N[C@H]1[C@@H](F)CN2C(=O)N(C)CCOc3ccccc3-c3cccc(c3)C[C@@H]12 [Example 15, N-((4^2S,4^3R,4^4S)-4^4-fluoro-6-methyl-5-oxo-9-oxa-6-aza-4(2,1)-pyrrolidina-1(1,2),2(1,3)-dibenzenacyclononaphane-4^3-yl)ethanesulfonamide]",1 to 10
15,"O=C1CCOc2ccccc2-c2cccc(c2)C[C@H]2[C@@H](NS(=O)(=O)C3(F)CC3)CCCN12 [Example 50, 1-fluoro-N-((4^2S,4^3S)-5-oxo-8-oxa-4 (2,1)-piperidina-1 (1,2),2 (1,3)-dibenzenacyclooctaphane-4^3-yl)cyclopropane-1-sulfonamide]",0.0398 to 1
16,"C[C@@H](F)S(=O)(=O)N[C@H]1CCCN2C(=O)CCOc3ccccc3-c3cccc(c3)C[C@@H]12 [Example 28, (S)-1-fluoro-N-((4^2S,4^3S)-5-oxo-8-oxa-4(2,1)-piperidina-1(1,2),2(1,3)-dibenzenacyclooctaphane-4^3-yl)ethane-1-sulfonamide]",0.0398 to 1
17,"CCN1CCOc2ccccc2-c2cccc(c2)C[C@H]2[C@@H](NS(=O)(=O)CF)C3(CC3)CN2C1=O [Example 37, N-((2′S,3′S)-6′-ethyl-5′-oxospiro[cyclopropane-1,4′-9-oxa-6-aza-4(2,1)-pyrrolidina-1(1,2),2(1,3)-dibenzenacyclononaphan]-3′-yl)-1-fluoromethanesulfonamide]",0.0398 to 1
18,"CN1CCOc2c(F)cc(F)cc2-c2cccc(c2)C[C@H]2[C@@H](NS(=O)(=O)C(F)F)C3(CC3)CN2C1=O [Example 31, N-((2′S,3′S)-3′,5′-difluoro-6′-methyl-5′-oxospiro[cyclopropane-1,4′-9-oxa-6-aza-4(2,1)-pyrrolidina-1(1,2),2(1,3)-dibenzenacyclononaphan]-3′-yl)-1,1-difluoromethanesulfonamide]",10 to 100
19,"CN1CCOc2c(F)cccc2-c2cccc(c2F)C[C@H]2[C@@H](NS(=O)(=O)CF)[C@@H](F)CN2C1=O [Example 12, 1-fluoro-N-((4^2S,4^3R,4^4S)-1^3,2^2,4^4-trifluoro-6-methyl-5-oxo-9-oxa-6-aza-4(2,1)-pyrrolidina-1(1,2),2(1,3)-dibenzenacyclononaphane-4^3-yl)methanesulfonamide]",1 to 10
20,"CN1CCOc2c(F)cc(F)cc2-c2cccc(c2F)C[C@H]2[C@@H](NS(=O)(=O)C(F)F)[C@@H](F)CN2C1=O [Example 11, 1,1-difluoro-N-((4^2S,4^3R,4^4S)-1^3,1^5,2^2,4^4-tetrafluoro-6-methyl-5-oxo-9-oxa-6-aza-4(2,1)-pyrrolidina-1(1,2),2(1,3)-dibenzenacyclononaphane-4^3-yl)methanesulfonamide]",10 to 100
21,"O=C1CCOc2c(F)cc(F)cc2-c2cccc(c2)C[C@H]2[C@@H](NS(=O)(=O)CF)CCCN12 [Example 13, N-((4^2S,4^3S)-1^3,1^5-difluoro-5-oxo-8-oxa-4(2,1)-piperidina-1(1,2),2(1,3)-dibenzenacyclooctaphane-4^3-yl)-1-fluoromethanesulfonamide]",1 to 10
